target: T1, 5-HT7 receptors (Homo sapiens, UniProt P34969); experiment: Radiolabeled binding ([3H]LSD competition), membranes of cells expressing recombinant 5-HT7 receptors; design: expressed in transfected cells; details: [3H]LSD radioligand binding
Experimental: ^1Radiolabeled Binding (IC50 and K1)
A solution of the compound of the disclosure to be tested was prepared as a 1-mg/ml stock in Assay Buffer or DMSO according to its solubility. A similar stock of the reference compound chlorpromazine was also prepared as a positive control. Eleven dilutions (5×assay concentration) of the compound of the disclosure and chlorpromazine were prepared in the Assay Buffer by serial dilution to yield final corresponding assay concentrations ranging from 10 pM to 10 μM.
A stock concentration of 5 nM [^3H]LSD (lysergic acid diethyl amide) was prepared in 50 mM Tris-HCl, 10 mM MgCl2, 1 mM EDTA, pH 7.4 (Assay Buffer). Aliquots (50 μl) of radioligand were dispensed into the wells of a 96-well plate containing 100 μl of Assay Buffer. Duplicate 50-μl aliquots of the compound of the disclosure test and chlorpromazine positive control reference compound serial dilutions were added.
Membrane fractions of cells expressing recombinant 5-HT7 receptors (50 μL) were dispensed into each well. The membranes were prepared from stably transfected cell lines expressing 5-HT7 receptors cultured on 10-cm plates by harvesting PBS-rinsed monolayers, resuspending and lysing in chilled, hypotonic 50 mM Tris-HCl, pH 7.4, centrifuging at 20,000×g, decanting the supernatant and storing at −80° C.; the membrane preparations were resuspended in 3 ml of chilled Assay Buffer and homogenized by several passages through a 26 gauge needle before using in the assay.
The 250-μl reactions were incubated at room temperature for 1.5 hours, then harvested by rapid filtration onto 0.3% polyethyleneimine-treated, 96-well filter mats using a 96-well Filtermate harvester. Four rapid 500-μl washes were performed with chilled Assay Buffer to reduce non-specific binding. The filter mats were dried, then scintillant is added to the filters and the radioactivity retained on the filters was counted in a Microbeta scintillation counter.
Raw data (dpm) representing total radioligand binding (i.e., specific+non-specific binding) was plotted as a function of the logarithm of the molar concentration of the competitor (i.e., test or reference compound). Non-linear regression of the normalized (i.e., percent radioligand binding compared to that observed in the absence of test or reference compound) raw data was performed in Prism 4.0 (GraphPad Software) using the built-in three parameter logistic model describing ligand competition binding to radioligand-labeled sites:
y=bottom+[(top−bottom)/(1+10×−log IC50)]
where bottom equals the residual radioligand binding measured in the presence of 10 μM reference compound (i.e., non-specific binding) and top equals the total radioligand binding observed in the absence of competitor. The log IC50 (i.e., the log of the ligand concentration that reduces radioligand binding by 50%) was thus estimated from the data and used to obtain the Ki by applying the Cheng-Prusoff approximation:
where [ligand] equals the assay radioligand concentration and KD equals the affinity constant of the radioligand for the target receptor. Functional Data (Kb)

T1 sequence (P34969 whole entry): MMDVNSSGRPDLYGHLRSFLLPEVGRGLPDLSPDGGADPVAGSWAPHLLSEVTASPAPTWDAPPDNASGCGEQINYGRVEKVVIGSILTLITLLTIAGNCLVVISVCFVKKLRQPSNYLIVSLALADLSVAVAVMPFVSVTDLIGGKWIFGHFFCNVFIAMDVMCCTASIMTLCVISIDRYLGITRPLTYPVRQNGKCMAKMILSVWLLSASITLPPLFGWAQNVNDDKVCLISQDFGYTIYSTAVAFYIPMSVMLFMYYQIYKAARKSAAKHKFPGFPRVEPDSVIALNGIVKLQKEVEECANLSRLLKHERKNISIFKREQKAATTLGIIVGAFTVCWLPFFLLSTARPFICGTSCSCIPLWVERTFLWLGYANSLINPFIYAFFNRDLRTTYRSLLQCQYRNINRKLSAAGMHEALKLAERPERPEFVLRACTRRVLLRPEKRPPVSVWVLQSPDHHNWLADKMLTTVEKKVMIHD

`CS(=O)(=O)NCC(=O)N1CCC2(CC1)C[C@H](CCN1CCN(c3cccc(Cl)c3)CC1)NC2=O` [Compound A9] and `CS(=O)(=O)NCC(=O)N1CCC2(CC1)C[C@H](CCN1CCN(c3ccc(F)cc3)CC1)NC2=O` [Compound A10] fall in the same range of Ki: 50 to 200 nM for the first, 50 to 200 nM for the second.

`CC(C)(N)C(=O)N1CCC2(CC1)C[C@H](CCN1CCN(c3ccc(F)cc3)CC1)NC2=O` [Compound A13] and `CC(=O)NC(C)(C)C(=O)N1CCC2(CC1)C[C@H](CCN1CCN(c3ccc(F)cc3)CC1)NC2=O` [Compound A17] fall in the same range of Ki: 200 to 500 nM for the first, 200 to 500 nM for the second.

`CC(C)(N)C(=O)N1CCC2(CC1)C[C@H](CCN1CCN(c3cccc(Cl)c3)CC1)NC2=O` [Compound A14] and `CC(=O)NC(C)(C)C(=O)N1CCC2(CC1)C[C@H](CCN1CCN(c3cccc(Cl)c3)CC1)NC2=O` [Compound A18] fall in the same range of Ki: 200 to 500 nM for the first, 200 to 500 nM for the second.

`CC(C)(C)C(=O)NC(C)(C)C(=O)N1CCC2(CC1)C[C@H](CCN1CCN(c3ccc(F)cc3)CC1)NC2=O` [Compound A21] and `CC(C)(C)C(=O)NC(C)(C)C(=O)N1CCC2(CC1)C[C@H](CCN1CCN(c3cccc(Cl)c3)CC1)NC2=O` [Compound A22] fall in the same range of Ki: 50 to 200 nM for the first, 50 to 200 nM for the second.

`CC(C)(C)C(=O)NCC(=O)N1CCC2(CC1)C[C@H](CCN1CCN(c3ccc(F)cc3)CC1)NC2=O` [Compound A25] and `CC(C)(C)C(=O)NCC(=O)N1CCC2(CC1)C[C@H](CCN1CCN(c3cccc(Cl)c3)CC1)NC2=O` [Compound A26] fall in the same range of Ki: 200 to 500 nM for the first, 200 to 500 nM for the second.

`CN(C)CC(=O)N1CCC2(CC1)C[C@H](CCN1CCN(c3ccc(F)cc3)CC1)NC2=O` [Compound A29] and `CN(C)CC(=O)N1CCC2(CC1)C[C@H](CCN1CCN(c3cccc(Cl)c3)CC1)NC2=O` [Compound A30] cannot be ordered by Ki: no less than 500 nM for the first, 200 to 500 nM for the second.

`O=C(CN1CCOCC1)N1CCC2(CC1)C[C@H](CCN1CCN(c3ccc(F)cc3)CC1)NC2=O` [Compound A33] and `O=C(CN1CCOCC1)N1CCC2(CC1)C[C@H](CCN1CCN(c3cccc(Cl)c3)CC1)NC2=O` [Compound A34] cannot be ordered by Ki: no less than 500 nM for the first, 200 to 500 nM for the second.

First: CCC1(CC)C[C@H](CCN2CCN(c3ccccc3)CC2)N(C)C1=O [Compound A85]
Second: CCC1(CC)C[C@H](CCN2CCN(c3cccc(Cl)c3)CC2)N(C)C1=O [Compound A86]
The Ki of the first is higher: 50 to 200 nM for the first, less than 50 nM for the second. The second binds more tightly here.

With `CCC1(CC)C[C@H](CCN2CCN(c3ccc(F)cc3)CC2)N(C)C1=O` [Compound A87] the Ki was less than 50 nM.

same assay, conditions: read-out: 5-HT7 % Inhib. @ 0.1 uM (Ki column)

Compared with `CC(=O)N1CCC2(CC1)C[C@H](CCN1CCN(c3ccc(F)cc3)C[C@@H]1C)NC2=O` [Compound A107], `CC(=O)N1CCC2(CC1)C[C@H](CCN1CCN(c3ccc(F)cc3)C[C@H]1C)NC2=O` [Compound A108] is higher in inhibition at 0.1 µM: 62% for the first, 63% for the second.

Compared with `CC(=O)N1CCC2(CC1)C[C@H](CCN1CCN(c3ccc(F)cc3)[C@@H](C)C1)NC2=O` [Compound A109], `CC(=O)N[C@@H](C)C(=O)N1CCC2(CC1)C[C@H](CCN1CCN(c3ccc(F)cc3)C[C@H]1C)NC2=O` [Compound A123] is higher in inhibition at 0.1 µM: 40% for the first, 64% for the second.

same assay, conditions: read-out: 5-HT7 % Inhib. @ 1 uM (Ki column)

`CC(=O)N1CCC2(CC1)C[C@H](CCN1CCN(c3ccc(F)cc3)[C@H](C)C1)NC2=O` [Compound A110] gave an inhibition at 1 µM of 45%.

target: T1, 5-HT7 receptors; experiment: HitHunter cAMP enzyme fragment complementation assay, antagonist activity in presence of 5-HT (Kb); type: cell-based; design: expressed in transfected cells; kept under G418 selection; details: antagonist mode vs EC70 5-HT
Experimental: Functional efficacy of the compounds of the disclosure on 5-HT7 serotonin receptors were measured in a cell based cAMP enzyme fragment complementation assay using the HitHunter cAMP assay (DiscoveRx). Cells stably expressing human 5HT7 receptors were plated in 96-well plates at 4000 cells/well, 16-20 hours prior to assay in growth media (Ultraculture medium, 2 mM GlutaMax and G418 1 mg/mL. Serial dilutions of the agonist, 5-hydroxytryptamine (5-HT), were prepared in a final concentration range of 10 μM to 10 nM. Compounds of the disclosure were prepared in 3-fold serial dilutions to obtain a final concentration range of 10 μM to 0.1 nM. Compounds of the disclosure are tested for agonist activity in the absence of 5-HT and antagonist activity in the presence of 5-HT. For the cAMP assay, the protocol was followed according to the instructions provided by the supplier. Briefly, cells were incubated with a compound of the disclosure for 30 minutes at 37° C. prior to addition of EC70 concentration of 5-HT. After an additional 30 minutes, cAMP antibody/cell lysis solution was added (20 μL/well) and incubated for 60 minutes at room temperature, cAMP XS+EA reagent is added (20 μL/well) and incubated for 2 hours at room temperature. Luminescence was read on the Envision Multilabel plate reader.

`NCC(=O)N1CCC2(CC1)C[C@H](CCN1CCN(c3cccc(Cl)c3)CC1)NC2=O` [Compound A1] and `CC(=O)NCC(=O)N1CCC2(CC1)C[C@H](CCN1CCN(c3cccc(Cl)c3)CC1)NC2=O` [Compound A5] cannot be ordered by Kb: less than 10 nM for the first, less than 10 nM for the second.

`NCC(=O)N1CCC2(CC1)C[C@H](CCN1CCN(c3ccc(F)cc3)CC1)NC2=O` [Compound A2] and `O=C(CC(F)(F)F)N1CCC2(CC1)C[C@H](CCN1CCN(c3ccc(F)cc3)CC1)NC2=O` [Compound A95] fall in the same range of Kb: 10 to 100 nM for the first, 10 to 100 nM for the second.

First: CC(=O)NCC(=O)N1CCC2(CC1)C[C@H](CCN1CCN(c3ccc(F)cc3)CC1)NC2=O [Compound A6]
Second: CS(=O)(=O)NCC(=O)N1CCC2(CC1)C[C@H](CCN1CCN(c3ccc(F)cc3)CC1)NC2=O [Compound A10]
The Kb of the first is lower: less than 10 nM for the first, 10 to 100 nM for the second.

Compared with `CS(=O)(=O)NCC(=O)N1CCC2(CC1)C[C@H](CCN1CCN(c3cccc(Cl)c3)CC1)NC2=O` [Compound A9], `CC(=O)N[C@@H](C)C(=O)N1CCC2(CC1)C[C@H](CCN1CCN(c3cccc(Cl)c3)CC1)NC2=O` [Compound A40] is lower in Kb: 10 to 100 nM for the first, less than 10 nM for the second.

`CC(=O)N[C@@H](C)C(=O)N1CCC2(CC1)C[C@H](CCN1CCN(c3ccc(F)cc3)CC1)NC2=O` [Compound A39] and `CC(=O)N[C@H](C(=O)N1CCC2(CC1)C[C@H](CCN1CCN(c3ccc(F)cc3)CC1)NC2=O)C(C)C` [Compound A184] cannot be ordered by Kb: less than 10 nM for the first, less than 10 nM for the second.

`O=C(c1cccnc1)N1CCC2(CC1)C[C@H](CCN1CCN(c3ccc(F)cc3)CC1)NC2=O` [Compound A81] and `O=C(c1cccnn1)N1CCC2(CC1)C[C@H](CCN1CCN(c3ccc(F)cc3)CC1)NC2=O` [Compound A84] fall in the same range of Kb: 100 to 500 nM for the first, 100 to 500 nM for the second.

Compared with `O=C(Cc1nnn[nH]1)N1CCC2(CC1)C[C@H](CCN1CCN(c3ccc(F)cc3)CC1)NC2=O` [Compound A82], `CC(F)(F)C(=O)N1CCC2(CC1)C[C@H](CCN1CCN(c3ccc(F)cc3)CC1)NC2=O` [Compound A93] is lower in Kb: no less than 500 nM for the first, less than 10 nM for the second.

First: O=C(CN1CCOC1=O)N1CCC2(CC1)C[C@H](CCN1CCN(c3ccc(F)cc3)CC1)NC2=O [Compound A83]
Second: CC[C@H](NC(C)=O)C(=O)N1CCC2(CC1)C[C@H](CCN1CCN(c3ccc(F)cc3)CC1)NC2=O [Compound A183]
The Kb of the first is higher: 100 to 500 nM for the first, less than 10 nM for the second.

Compared with `CCC1(CC)C[C@H](CCN2CCN(c3ccccc3)CC2)N(C)C1=O` [Compound A85], `CCC1(CC)C[C@H](CCN2CCN(c3cccc(Cl)c3)CC2)N(C)C1=O` [Compound A86] is lower in Kb: 10 to 100 nM for the first, less than 10 nM for the second.

First: CCC1(CC)C[C@H](CCN2CCN(c3ccc(F)cc3)CC2)N(C)C1=O [Compound A87]
Second: CCC(=O)N1CCC2(CC1)C[C@H](CCN1CCN(c3ccc(F)cc3)CC1)N(C)C2=O [Compound A97]
The Kb of the first is higher: 10 to 100 nM for the first, less than 10 nM for the second.

`CC(=O)N1CCC2(CC1)C[C@H](CCN1CCN(c3ccc(F)cc3)CC1)N(C)C2=O` [Compound A88] and `COC(=O)N1CCC2(CC1)C[C@H](CCN1CCN(c3ccc(F)cc3)CC1)N(C)C2=O` [Compound A124] fall in the same range of Kb: 10 to 100 nM for the first, 10 to 100 nM for the second.

`CC(=O)N1CCC2(CC1)C[C@H](CCN1CCN(c3cccc(Cl)c3)CC1)N(C)C2=O` [Compound A89] and `CN1C(=O)C2(CCN(C(=O)C(C)(C)C)CC2)C[C@@H]1CCN1CCN(c2cccc(Cl)c2)CC1` [Compound A91] fall in the same range of Kb: 10 to 100 nM for the first, 10 to 100 nM for the second.

`CN1C(=O)C2(CCN(C(=O)C(C)(C)C)CC2)C[C@@H]1CCN1CCN(c2ccc(F)cc2)CC1` [Compound A90] and `CN1C(=O)C2(CCN(C(=O)C(C)(F)F)CC2)C[C@@H]1CCN1CCN(c2ccc(F)cc2)CC1` [Compound A103] cannot be ordered by Kb: less than 10 nM for the first, less than 10 nM for the second.

First: CC(C)C(=O)N1CCC2(CC1)C[C@H](CCN1CCN(c3ccc(F)cc3)CC1)N(C)C2=O [Compound A98]
Second: CN1C(=O)C2(CCN(C(=O)C3CC3)CC2)C[C@@H]1CCN1CCN(c2ccc(F)cc2)CC1 [Compound A99]
The Kb of the first is higher: 10 to 100 nM for the first, less than 10 nM for the second.

`CC(=O)N1CCC2(CC1)C[C@H](CCN1CCN(c3ccc(F)cc3)C[C@@H]1C)NC2=O` [Compound A107] and `CC(=O)N1CCC2(CC1)C[C@H](CCN1CCN(c3ccc(F)cc3)C[C@H]1C)NC2=O` [Compound A108] cannot be ordered by Kb: less than 10 nM for the first, less than 10 nM for the second.

First: CC(=O)N1CCC2(CC1)C[C@H](CCN1CCN(c3ccc(F)cc3)[C@@H](C)C1)NC2=O [Compound A109]
Second: CC(=O)N[C@@H](C)C(=O)N1CCC2(CC1)C[C@H](CCN1CCN(c3ccc(F)cc3)C[C@H]1C)NC2=O [Compound A123]
The Kb of the first is higher: 10 to 100 nM for the first, less than 10 nM for the second.
